Test results taken from patent US20150044136A1, “Ophthalmological treatment for michobial infections” (priority 2013, published 2015).

Test system: L929 cells
Assay: Cytotoxicity evaluation, agar overlay, ASTM F895-84 / ISO 10993-5
Format: cell-based
Set-up: key to Zone Description Following 48 Hour Incubation (size of zone of lysis): 0: No detectable zone around or under specimen; 1: Zone limited to area under specimen; 2: Zone extends less than 0.5 cm beyond specimen; 3: Zone extends 0.5 to 1.0 cm beyond specimen; 4: Zone extends greater than 1.0 cm beyond specimen but does not involve entire dish; 5: Zone involves entire dish
Conditions: L929 monolayer, replicate wells
Experimental: ASTM F895-84 Test Method was Utilized.
The Sample was analyzed as described in ASTM F895-84 and ISO 10993-5. Monolayers of L929 cells were grown in six 150 mm cell culture plates (Corning, USA). Following 24 hours to cell passage, the plates were over-layed with agar supplemented dMEM/FBS media as described by the ASTM method. One hundred milligrams of the provided samples was added to the center of four of the over-layed wells. One well was left undisturbed as this served as negative control. An additional well was inoculated with a 2 cm^2 piece of latex rubber. The cells were then incubated in 5% carbon dioxide at 36.5° C.±1 for 24 hours. The plates and cells were evaluated macro and microscopically for signs of malformation, degeneration, sloughing, or lysis of the cells within the zone directly beneath and surrounding the discs. Cells were then re-incubated for an additional 24 hours at the conditions described above and evaluated again. The size of the zone surrounding the inoculated area was evaluated for signs of cell growth inhibition and/cell lysis.
Table 3 contains the numerical values describing the size of zone of lysis surrounding the inoculums as per the ASTM standards. Table 4 contains the relative numerical value describing the number of cells affected within the zone of inhibition or toxicity. Each sample observed is assigned a numerical value based on cellular degradation and/or cell death.
Briefly, number 0=unchanged/no evident cytotoxicity; 5=complete monolayer destruction and severe cytotoxicity. The ASTM and ISO 10993-5 consider a scoring of 3 or higher as toxic.

`Oc1ccccc1` [(+) Control, Phenol] was tested, and the “Cell Description Following 24 Hour Incubation (condition of cells within the zone of lysis)” value (24 Hour Incubation) was 5 (Greater than 80% of zone affected of zone affected), the “Zone Description Following 24 Hour Incubation (size of zone of lysis)” value (24 Hour Incubation) was 4 (Zone extends greater than 1.0 cm beyond specimen but does not involve entire dish) and the “Cell Description Following 48 Hour Incubation (condition of cells within the zone of lysis)” value (48 Hour Incubation) was 5 (Greater than 80% of zone affected of zone affected). The “Zone Description Following 48 Hour Incubation (size of zone of lysis)” value (48 Hour Incubation) was 5.
